Patent US10988465B2, “CXCR4 inhibitors and uses thereof” (X4 Pharmaceuticals, Inc., priority 2016, dated 2021)
Where two headings read alike, the source gives them in different places.

Tests used:
[1] = Rat brain uptake assay: pharmacokinetics and brain penetration after IV-PO administration; format: in vivo, male SD rats; settings: male, SD; for clearance / AUC(0-t) / bioavailability / half-life: Rat (3 mg/kg IV; 10 mg/kg, PO); for bioavailability: read-out: F % (oral bioavailability); for half-life: read-out: t½ (converted)
Experimental: Example 39: Pharmacokinetics and Brain Penetration Experiment to Determine Brain and Plasma Concentration of Compounds after IV-PO Administration to Male SD Rats
The IV and PO dosing solutions were prepared in 50 mM citrate buffer (pH 4.0) at 2 mg/mL. The blood collection was performed as follows: the animal was restrained manually at the designated time points, approximately 150 μL of blood sample was collected via cardiac puncture vein into EDTA-2K tubes. The blood samples were maintained in wet ice first and centrifuged to obtain plasma (2000 g, 4° C., 5 min) within 15 minutes post sampling. The brain collection was performed as follows: a mid-line incision was made in the animal's scalp and the skin was retracted. Using small bone cutters and rongeurs, the skull overlying the brain was removed. The brain was removed using a spatula and rinsed with cold saline. The brain was placed in screw-top tubes and then stored under −70° C. until analysis. The CSF collection was performed as follows: the animal was euthanized under deep anesthesia with air bubble tail vein injection. The CSF was collected by direct puncture of butterfly needle into the cisterna magna, using the occipital bone and the wings of the atlas as landmarks. A piece of white paper was used as a background to monitor color change in the sample just above the needle during collection. Upon observation of color change, the PE tubing was quickly clamped off above the color change and cut just above the clamped site. The clear sample was drawn into the syringe.
An aliquot of 30 μL sample was added to 100 μL MeCN containing 100 ng/mL IS (Dexamethasone). The mixture was vortexed for 10 min and centrifuged at 5800 rpm for 10 min. An aliquot of 40 μL supernatant was added with 40 μl H2O and the mixture was vortexed for 5 min. An aliquot of 2 μL supernatant was injected for LC-MS/MS analysis.
The sample was homogenized with 3 volumes (v/w) of PBS. An aliquot of 30 μL sample was added with 100 μL MeCN containing 100 ng/mL IS (Dexamethasone). The mixture was vortexed for 10 min and centrifuged at 5800 rpm for 10 min. An aliquot of 40 μL supernatant was added with 40 μl H2O and the mixture was vortexed for 5 min. An aliquot of 2 μL supernatant was injected for LC-MS/MS analysis.
An aliquot of 10 μL sample was added to 10 μL MeOH/H2O (1/1) and 40 μL ACN containing 200 ng/mL IS (Dexamethasone) 120 μL H2O. The mixture was vortexed for 5 min. An aliquot of 2 μL supernatant was injected for LC-MS/MS analysis.
The sample analysis was performed on UPLC-MS/MS-02 (Triple Quad™ 4000) under the following conditions: positive ion, ESI, MRM detection using dexamethasone as internal standard. HPLC conditions: mobile phase A: H2O-0.1% FA, mobile phase B: MeCN-0.1% FA on ACQUITY UPLC HSS T3 (2.1×50 mm, 1.8 μm) column at 60° C. In Table 11, F % means means oral bioavailability (the total number for protein bound and free fraction).

[2] = target: T1, CXCR-4 transfected U87 cell line (U87.CXCR4) (Homo sapiens, UniProt P61073); test: Intracellular CXCL-12-induced calcium mobilization assay (FLIPR); format: cell-based; settings: U87.CXCR4 cells; CXCL-12 25-50 ng/mL; compound added 15 min before; read-out: IC50 CXCL-12 Ca^2+ flux U87.CXCR4+
T1 construct: expressed in transfected cells; host or cells: U87 (U87.CXCR4)
T1 sequence (P61073 whole entry): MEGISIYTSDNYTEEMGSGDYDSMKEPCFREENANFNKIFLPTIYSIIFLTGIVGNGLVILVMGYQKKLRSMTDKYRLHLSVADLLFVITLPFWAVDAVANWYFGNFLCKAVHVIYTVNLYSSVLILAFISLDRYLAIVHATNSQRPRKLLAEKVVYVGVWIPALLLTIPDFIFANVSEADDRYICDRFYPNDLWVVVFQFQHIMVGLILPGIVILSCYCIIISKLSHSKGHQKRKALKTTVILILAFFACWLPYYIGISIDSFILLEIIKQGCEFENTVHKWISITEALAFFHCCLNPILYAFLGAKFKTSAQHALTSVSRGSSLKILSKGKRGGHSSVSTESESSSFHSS
Outline: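 U87 cells stably expressing human CXCR4, loaded with Fluo-2 AM (4 μM final) for 45 min at 37 °C in HBSS/20 mM HEPES/0.2% BSA, pH 7.4. Calcium flux triggered by CXCL-12 (25-50 ng/mL) was followed by FLIPR fluorescence over time at 37 °C.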

[3] = Mouse brain uptake assay (MBUA), 3 mg/kg IV, 0-1 h, 3 time points; format: in vivo, male CD1 mice; settings: for clearance / half-life: CD1, plasma, 3 time points; for half-life: read-out: t½ (converted)
Experimental: Example 38: Pharmacokinetics and Brain Penetration Experiment to Determine Brain and Plasma Concentrations of Compounds after IV Administration to Male CD1 Mice
The study design (9 animals) consisted of administrating the drug (IV: 3 mg/kg (5 mL/kg) via tail vein injection) and collecting samples at terminal bleeding for plasma and brain at 0.083, 0.5 and 1 h. The IV dosing solution was prepared in 50 mM citrate buffer (pH 4.0) at 0.6 mg/mL. The blood collection was performed as follows: the animal was restrained manually and approximately 150 μL blood/time point was collected into a dipotassium EDTA tube via retro orbital puncture under anesthesia with isoflurane. The blood sample was put on ice and centrifuged to obtain a plasma sample (2000 g, 5 min under 4° C.) within 15 minutes. The brain collection was performed as follows: a mid-line incision was made in the animal's scalp and the skin was retracted. Using small bone cutters and rongeurs, the skull overlying the brain was removed. The brain was removed using a spatula and the brain rinsed with cold saline. The brain was placed in screw-top tubes, and the tubes were stored at −70° C. until analysis.
An aliquot of 30 μL sample was added to 150 μL MeCN containing 50 ng/mL IS (Dexamethasone). The mixture was vortexed for 5 min and centrifuged at 14,000 rpm for 5 min. An aliquot of 5 μL supernatant was injected for LC-MS/MS analysis.
An aliquot of 30 μL brain homogenate (brain:PBS=1:3, w/v) sample was added to 150 μL IS in MeCN (Dexamethasone, 50 ng/mL). The mixture was vortexed for 5 min and centrifuged at 14,000 rpm for 5 min. An aliquot of 5 μL supernatant was injected for LC-MS/MS analysis.
The sample analysis was performed on LCMS/MS-003 (API4000, triple quadruple) under the following conditions: positive ion, ESI, MRM detection using dexamethasone as internal standard. HPLC conditions: mobile phase A: H2O (0.025% formic acid (FA) with 1 mM NH4OAc); mobile phase B: MeOH (0.025% FA with 1 mM NH4OAc) on Waters X-Bridge C18 (2.1×50 mm, 2.5 μm) column at 60° C.

[4] = male, CD1, brain, mouse, 3 mg/kg IV, 0-1 h, read-out: AUClast (b)
[5] = male, CD1, plasma, mouse, 3 mg/kg IV, 0-1 h, read-out: AUClast (P)

Kp uu ([1]; brain/plasma (unbound), Fu (b)*AUC last (b)/Fu (p)*AUC last (p), Rat, read-out: Kp, uu (unbound brain/unbound plasma drug concentration ratio))	Kp ([1]; brain/plasma, AUC last(b)/AUC last(p), Rat, read-out: Kp (brain/plasma drug concentration ratio))	Kp ([3]; male, CD1, mouse, brain/plasma, iv, 3 mg/kg)	Kp uu ([3]; male, CD1, unbound brain/unbound plasma, mouse, 3 mg/kg IV, 0-1 h, read-out: Kp, uu)	fraction unbound ([3]; mouse, fraction unbound to brain proteins, read-out: Fu (b) %)	fraction unbound ([3]; mouse, fraction unbound to plasma proteins, read-out: Fu (p) %)	SMILES	clearance ([1]; plasma) [mL/min/kg]	AUC(0-t) ([1]; plasma, read-out: AUClast (P)) [ng·h/mL]	bioavailability ([1]; plasma) [%]	half-life ([1]; plasma) [h]	AUC(0-t) ([1]; brain, read-out: AUClast (b)) [ng·h/mL]	IC50 [2] [nM]	clearance ([3]; male, mouse, 3 mg/kg IV, 0-1 h) [mL/min/kg]	half-life ([3]; male, mouse, 3 mg/kg IV, 0-1 h) [h]	AUC(0-t) [3, 4] [ng·h/mL]	AUC(0-t) [3, 5] [ng·h/mL]
0.2	1.22	1.23	0.33	0.035	0.127	CN1CCN(c2cccc3nc([C@H]4CCC[C@@H](c5ncccc5Cl)N4)[nH]c23)CC1 (racemic) [I-122]	31.7	5440	74.6	5.31	6650	0.01 to 100	119	0.402	418	341
–	–	–	–	–	–	Cc1cccnc1[C@@H]1CCC[C@H](c2nc3cccc(N4CCN(C)CC4)c3[nH]2)N1C (racemic) [I-3, 2-((2R,6S)-1-methyl-6-(3-methylpyridin-2-yl)piperidin-2-yl)-7-(4-methylpiperazin-1-yl)-1H-benzo[d]imidazole]	123	503	37.6	2.1	1520	0.01 to 100	115	0.3	180	268
